Earlier results as cited in patent US20220331289A1, “Pharmaceutical Composition Comprising an Artemisinin Derivative for Nasal or Pulmonary Delivery” (Cipla Limited, priority 2014, published 2022).

Conditions: oil-based intramuscular injection formulation

## CO[C@H]1O[C@@H]2O[C@@]3(C)CC[C@H]4[C@H](C)CC[C@@H]([C@H]1C)[C@@]24OO3 [artemether]
  absorption: slowly and erratically absorbed
